Measured values: patent publication US9745335B2 (Blirt S.A., priority 2012, dated 2017)
≈ marks a conversion by molar mass, not a printed value.

Columns and labels:
HepG2 cells = assay: cytotoxic activity against mammalian cells in tissue culture (MTT); type: cell-based, human
Description: (§1) All media contained 100 μg/ml of penicillin G and streptomycin. 24-wells microplates containing appropriate medium were inoculated with the cells in amount of 1.2×10^4 cells/well and allowed to stand overnight. Next, tested compounds as solution in dimethylsulfoxide (DMSO) were added in volume of 10 μl (serial 2× dilutions). To control well 10 μl of DMSO was added. Microplates with cell suspensions were incubated for 120 h at temperature 37° C. at atmosphere of 95%/5% CO2. After incubation, to all wells 200 μl of solution of 3-(4,5-dimethyltiazole-2-yl)-2,5-diphenylotetrazole bromide (MTT) in PBS (4 mg/ml) was added and plates were further incubated for 4 h at 37° C. Next, to dissolve crystals of formazane 1 ml of DMSO was added and absorption of solutions was measured at the wavelength λ=540 nm (A540), using a microplates reader (Victor^3, Perkin-Wallac). […] From these graphs IC50 values were read, that is concentration of tested compound in the presence at which A540 value is half of A540 value measured in the control sample.

CCRF-CEM cells = assay: as above; type: cell-based, human
Description: as §1

[1] = system: Candida albicans clinical strain B4 (CaMdr1p); assay: antifungal activity against MDR fungal strains and parents; type: cell-based; details: C. albicans B4 (CaMdr1p), fluconazole-resistant
Description: (§2) For the determination of antifungal activity in vitro we used method of serial dilution in buffered medium RPMI 1640, pH 7.0, in a 96-wells microplates, according to the standard procedure (National Committee for Clinical Laboratory Standards. Reference method for broth dilution antifungal susceptibility testing of yeast, approved standard, 2nd ed. M27-A2 vol. 22 Wayne, Pa., 2002). The optical density of cells suspension was measured using a microplates reader (Victor^3, Perkin-Elmer) at the wavelength λ=531 nm (A531). On the basis of obtained results the diagrams of relation between A531 values and concentration of examined compound were made.

[2] = system: Candida albicans clinical strain Gu5 (CaCdr1p, CaCdr2p); assay: as above; type: cell-based; details: C. albicans Gu5 (CaCdr1p, CaCdr2p), fluconazole-resistant
Description: as §2

[3] = system: Candida albicans strain STY7 (CaCdr1p); assay: as above; type: cell-based; details: C. albicans STY7 (CaCdr1p), 5674 derivative, deletion of CDR2
Description: as §2

[4] = system: Candida albicans clinical strain F5 (CaMdr1p); assay: as above; type: cell-based; details: C. albicans F5 (CaMdr1p), fluconazole-resistant
Description: as §2

[5] = system: Candida albicans clinical strain F2; assay: as above; type: cell-based; details: C. albicans F2, fluconazole sensitive, parent strain for F5
Description: as §2

[6] = system: Candida albicans strain 5674 (CaCdr1p, CaCdr2p); assay: as above; type: cell-based; details: C. albicans 5674 (CaCdr1p, CaCdr2p)
Description: as §2

[7] = system: Candida albicans clinical strain B3; assay: as above; type: cell-based; details: C. albicans B3, fluconazole sensitive, parent strain for B4
Description: as §2

[8] = system: Candida albicans strain STY31; assay: as above; type: cell-based; details: C. albicans STY31, 5674 derivative, deletion of CDR1 and CDR2
Description: as §2

[9] = system: Candida albicans clinical strain Gu4; assay: as above; type: cell-based; details: C. albicans Gu4, fluconazole sensitive, parent strain for Gu5
Description: as §2

[10] = system: Candida dubliniensis CBS 7987; assay: antifungal activity in vitro, broader spectrum; type: cell-based
Description: as §2
(§3) Obtained results are presented below in tables 2A and 2B.

[11] = system: Candida pseudotropicalis KKP 324; assay: antifungal activity in vitro, broader spectrum; type: cell-based
Description: as §2, §3

Candida arborea KKP 319 = assay: antifungal activity in vitro, broader spectrum; type: cell-based
Description: as §2, §3

[12] = system: Trichoderma viride LOCK E159; assay: antifungal activity in vitro, broader spectrum; type: cell-based
Description: as §2, §3

[13] = system: Aspergillus niger LOCK E201; assay: antifungal activity in vitro, broader spectrum; type: cell-based
Description: as §2, §3

[14] = system: Candida lipolytica KKP 322; assay: antifungal activity in vitro, broader spectrum; type: cell-based
Description: as §2, §3

[15] = system: Candida stellatoidea CBS 1905; assay: antifungal activity in vitro, broader spectrum; type: cell-based
Description: as §2, §3

[16] = system: Candida quilliermondii DSM 11947; assay: antifungal activity in vitro, broader spectrum; type: cell-based
Description: as §2, §3

[17] = system: Candida parapsilosis DSM 5784; assay: antifungal activity in vitro, broader spectrum; type: cell-based
Description: as §2, §3

Candida albicans SC 5314 = assay: antifungal activity in vitro, broader spectrum; type: cell-based
Description: as §2, §3

LLC-PK1 cells = assay: cytotoxic activity against mammalian cells in tissue culture (MTT); type: cell-based, pig
Description: as §1

[18] = system: Candida glabrata DSM 11226; assay: antifungal activity in vitro, serial dilution in RPMI 1640; type: cell-based
Description: as §2

[19] = system: Candida lusitaniae DSM 70102; assay: as above; type: cell-based
Description: as §2

[20] = system: Saccharomyces cerevisiae ATCC 9763; assay: as above; type: cell-based; details: RPMI 1640, pH 7.0; for Antifungal activity IC50: Saccharomyces cerevisiae ATCC 9763 (first head over MIC and IC50); for Antifungal activity MIC: Saccharomyces cerevisiae ATCC 9763
Description: as §2

Candida krusei DSM 6128 = assay: as above; type: cell-based
Description: as §2

[21] = system: Candida albicans ATCC 10231; assay: as above; type: cell-based
Description: as §2

[22] = system: Candida tropicalis KKP 334; assay: as above; type: cell-based
Description: as §2

Human erythrocytes = assay: hemotoxicity determination (hemolytic activity); type: cell-based
Description: The hemotoxicity determination was carried out by the serial dilutions method, according to the procedure described earlier (Slisz, M., et al., E., J Antibiot 57: 669-678 (2004). Human erythrocytes were suspended in the solution of saline to obtain a cell density of suspension 2×10^7/ml. Suitable amounts of diluted solutions of compounds were added to the cell suspension in tubes and were incubated at 37° C. for 30 minutes and then centrifuged (1700×g, 10 min, 4° C.). The concentration of hemoglobin in supernatant after centrifugation of erythrocytes suspension were determined by measuring the absorbance at wavelength λ=540 nm (A540). The maximum level of hemolysis was obtained after incubation of cells suspension in the presence of 0.1% Tritone X-100 (control sample). […] From these graphs, the EH50 values were read which are the interpolated concentrations of compound, for which the A540 value is exactly 50% of the A540 value measured for the control sample.

SMILES | IC50 (cytotoxic activity) (HepG2 cells) [µg/mL] | IC50 (cytotoxic activity) (CCRF-CEM cells) [µg/mL] | IC50 (cytotoxic activity) (LLC-PK1 cells) [µg/mL] | Antifungal activity MIC [18] [µg/mL] | Antifungal activity MIC [19] [µg/mL] | Antifungal activity IC50 [20] [µg/mL] | Antifungal activity MIC [20] [µg/mL] | Antifungal activity MIC (Candida krusei DSM 6128) [µg/mL] | Antifungal activity MIC [21] [µg/mL] | Antifungal activity MIC [22] [µg/mL] | Hemotoxi EH50 (Human erythrocytes) [µg/mL] | other results
C[C@@H]1[C@H](O)[C@@H](C)/C=C/C=C/C=C/C=C/C=C/C=C/C=C/[C@H](O[C@@H]2O[C@H](C)[C@@H](O)[C@H](NC(=O)[C@H](N)c3ccccc3)[C@@H]2O)C[C@@H]2O[C@](O)(C[C@@H](O)C[C@@H](O)[C@H](O)CC[C@@H](O)C[C@@H](O)CC(=O)O[C@H]1C)C[C@H](O)[C@H]2C(=O)O [Compound A41, N-D-phenylglycylamphotericin B] | >100 | >100 | >100 | 4 | 2 | 1.46 | 4 | 4 | 2 | 4 | >100 | Antifungal activity MIC [1]: 1 µg/mL; Antifungal activity MIC [2]: 1 µg/mL; Antifungal activity MIC [3]: 1 µg/mL; Antifungal activity MIC [4]: 4 µg/mL; Antifungal activity MIC [5]: 2 µg/mL; Antifungal activity MIC [6]: 1 µg/mL; Antifungal activity MIC [7]: 1 µg/mL; Antifungal activity MIC [8]: 1 µg/mL; Antifungal activity MIC [9]: 1 µg/mL; Antifungal activity MIC [10]: 1 µg/mL; Antifungal activity MIC [11]: 2 µg/mL; Antifungal activity MIC (Candida arborea KKP 319): 4 µg/mL; Antifungal activity MIC [12]: 4 µg/mL; Antifungal activity MIC [13]: 2 µg/mL; Antifungal activity MIC [14]: 2 µg/mL; Antifungal activity MIC [15]: 2 µg/mL; Antifungal activity MIC [16]: 1 µg/mL; Antifungal activity MIC [17]: 2 µg/mL; Antifungal activity MIC (Candida albicans SC 5314): 1 µg/mL
CCN(CC)CCNC(=S)N[C@@H]1[C@H](O)[C@H](O[C@H]2/C=C/C=C/C=C/C=C/C=C/C=C/C=C/[C@H](C)[C@@H](O)[C@@H](C)[C@H](C)OC(=O)C[C@H](O)C[C@H](O)CC[C@@H](O)[C@H](O)C[C@H](O)C[C@]3(O)C[C@H](O)[C@@H](C(=O)O)[C@H](C2)O3)O[C@H](C)[C@H]1O [Compound A25, N-{3-[2-(N,N-diethylamino)ethyl]thioureidyl}amphotericin B] | >100 | >100 | >100 | 4 | 2 | 0.85 | 2 | 4 | 2 | 2 | >100 | 
C[C@@H]1[C@H](O)[C@@H](C)/C=C/C=C/C=C/C=C/C=C/C=C/C=C/[C@H](O[C@@H]2O[C@H](C)[C@@H](O)[C@H](NC(=S)NCCN3CCOCC3)[C@@H]2O)C[C@@H]2O[C@](O)(C[C@@H](O)C[C@@H](O)[C@H](O)CC[C@@H](O)C[C@@H](O)CC(=O)O[C@H]1C)C[C@H](O)[C@H]2C(=O)O [Compound A24, N-{[3-(2-morpholin-1-yl)ethyl]thioureidyl}amphotericin B] | >100 | 80.9 ± 2.3 (≈ 73.8 µM) | >100 | 4 | 2 | 1.13 | 2 | 4 | 2 | 2 | >100 | 
C[C@@H]1[C@H](O)[C@@H](C)/C=C/C=C/C=C/C=C/C=C/C=C/C=C/[C@H](O[C@@H]2O[C@H](C)[C@@H](O)[C@H](NC(=S)NCCN3CCCC3)[C@@H]2O)C[C@@H]2O[C@](O)(C[C@@H](O)C[C@@H](O)[C@H](O)CC[C@@H](O)C[C@@H](O)CC(=O)O[C@H]1C)C[C@H](O)[C@H]2C(=O)O [Compound A27, N-{[3-(2-pyrrolidin-1-yl)ethyl]thioureidyl}amphotericin B] | >100 | >100 | >100 | 4 | 2 | 0.75 | 2 | 4 | 2 | 2 | >100 | 
